Reference: the supplement of paper PMC11208160

Test: recombinant UMI read abundance after kanamycin selection (control-corrected) (log10(CPM+1)); higher = more efficient recombination; extreme values may be limits of the assay; sequences stand for … in AGTGCAGAGAAAATCGGCCAGTTTTCTCTGCCTGCAGTCCGCATGCCGTGGGACCCCTTGGGTTCTAACCTGTTGCCTAGATTTATGCAGCGGACTGCCTTTCTCCCAAAGTGATAAACCGG…AGGTTGGTTTCACT; site = the 11-nt donor
Procedure: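 Pooled E. coli donor-specificity screen for the IS621 bridge recombinase. Each library member carries a reprogrammed 11-nt donor and a full-length LE bridge RNA expressed in cis from the natural promoter, with a paired donor-binding loop (8-nt LDG + 4-nt RDG) and a target-binding loop fixed to T5. It is co-electroporated with a T5 target plasmid; recombinase is induced with 0.07 mM IPTG and recombinants are selected on kanamycin. UMIs are counted as CPM, averaged over two biological replicates and corrected by the unselected control. Molecule = full bridge RNA written as DNA, built from the T5 scaffold: LDG = donor specificity nt 1-8, RDG = reverse complement of nt 8-11.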
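Note: IS621 bridge recombinase in Escherichia coli cells against a fixed T5 target plasmid.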

Row | Sequence | recombinant UMI read abundance (log10)
1 | ACACGAGCATGGACCGGTTTTCCCGGTAATCCGTATTTGTC (site ACACGAACTGA) | 2.63
2 | ACACGAGCATGGACCGGTTTTCCCGGTAATCCGTATTTGTC (site ACACGACCTGA) | 0
3 | ACACGAGCATGGACCGGTTTTCCCGGTAATCCGTATTTGTC (site ACACGAGCTGA) | 2.61
4 | ACACGAGCATGGACCGGTTTTCCCGGTAATCCGTATTTGTC (site ACACGATCTGA) | 2.27
5 | ACACTAGCATGGACCGGTTTTCCCGGTAATCCGTATTTGCA (site ACACTAGCTTG) | 1.05
6 | ACACTAGCATGGACCGGTTTTCCCGGTAATCCGTATTTGCA (site ACAGTATCTTG) | 0.00925
7 | ACACTTACATGGACCGGTTTTCCCGGTAATCCGTATTTGGG (site ACACTTACTCC) | 0.464
8 | ACACTTCCATGGACCGGTTTTCCCGGTAATCCGTATTTGAC (site ACACATCCTGT) | 1.66
9 | ACACTTCCATGGACCGGTTTTCCCGGTAATCCGTATTTGAC (site ACACCTCCTGT) | 1.29
10 | ACACTTCCATGGACCGGTTTTCCCGGTAATCCGTATTTGAC (site ACACGTCCTGT) | 1.08
11 | ACACTTCCATGGACCGGTTTTCCCGGTAATCCGTATTTGAC (site ACACTTCCTGT) | 0.338
12 | ACAGAATCATGGACCGGTTTTCCCGGTAATCCGTATTTGCT (site ACAGAATCTAG) | 2.19
13 | ACAGAATCATGGACCGGTTTTCCCGGTAATCCGTATTTGCT (site ACAGTATCTTG) | 0.97
14 | ACAGAATCATGGACCGGTTTTCCCGGTAATCCGTATTTGGA (site ACAGAATCTTC) | 2.48
15 | ACAGAATCATGGACCGGTTTTCCCGGTAATCCGTATTTGGA (site ACAGTATCTTG) | 0
16 | ACAGAGACATGGACCGGTTTTCCCGGTAATCCGTATTTGCG (site ACAGAGACTCG) | 2.84
17 | ACAGAGACATGGACCGGTTTTCCCGGTAATCCGTATTTGCG (site CCAGAGACTCG) | 2.19
18 | ACAGAGACATGGACCGGTTTTCCCGGTAATCCGTATTTGCG (site GCAGAGACTCG) | 1.18
19 | ACAGAGACATGGACCGGTTTTCCCGGTAATCCGTATTTGCG (site TCAGAGACTCG) | 2.18
20 | ACAGATACATGGACCGGTTTTCCCGGTAATCCGTATTTGCC (site ACAGATACTGG) | 1.19
21 | ACAGCATCATGGACCGGTTTTCCCGGTAATCCGTATTTGTA (site ACAGCATCTTA) | 2.85
22 | ACAGCATCATGGACCGGTTTTCCCGGTAATCCGTATTTGTA (site ACAGTATCTTG) | 0
23 | ACAGCGCCATGGACCGGTTTTCCCGGTAATCCGTATTTGTT (site ACAGCGCCTAA) | 0.431
24 | ACAGGGCCATGGACCGGTTTTCCCGGTAATCCGTATTTGCT (site ACAGGGCCTAG) | 1.1

Row | Sequence | recombinant UMI read abundance (log10)
25 | ACAGGTCCATGGACCGGTTTTCCCGGTAATCCGTATTTGGC (site ACAGGTCCTGC) | 1.02
26 | ACAGTAGCATGGACCGGTTTTCCCGGTAATCCGTATTTGCA (site ACAGTAACTTG) | 2.58
27 | ACAGTAGCATGGACCGGTTTTCCCGGTAATCCGTATTTGCA (site ACAGTACCTTG) | 0
28 | ACAGTAGCATGGACCGGTTTTCCCGGTAATCCGTATTTGCA (site ACAGTAGCTTG) | 2.85
29 | ACAGTAGCATGGACCGGTTTTCCCGGTAATCCGTATTTGCA (site ACAGTATCTTG) | 2
30 | ACAGTATCATGGACCGGTTTTCCCGGTAATCCGTATTTGCT (site ACAGTATCTAG) | 2.8
31 | ACAGTATCATGGACCGGTTTTCCCGGTAATCCGTATTTGCT (site ACAGTATCTCG) | 1.11
32 | ACAGTATCATGGACCGGTTTTCCCGGTAATCCGTATTTGCT (site ACAGTATCTGG) | 2.29
33 | ACAGTATCATGGACCGGTTTTCCCGGTAATCCGTATTTGCT (site ACAGTATCTTG) | 2.22
34 | ACAGTCTCATGGACCGGTTTTCCCGGTAATCCGTATTTGGA (site ACAGTATCTTG) | 0
35 | ACAGTCTCATGGACCGGTTTTCCCGGTAATCCGTATTTGGA (site ACAGTCTCTTC) | 2.89
36 | ACAGTGGCATGGACCGGTTTTCCCGGTAATCCGTATTTGCG (site ACAGTGGCTCG) | 1.93
37 | ACAGTGTCATGGACCGGTTTTCCCGGTAATCCGTATTTGCC (site ACAGTATCTTG) | 2.05
38 | ACAGTGTCATGGACCGGTTTTCCCGGTAATCCGTATTTGCC (site ACAGTGTCTGG) | 2.88
39 | ACAGTTGCATGGACCGGTTTTCCCGGTAATCCGTATTTGCA (site ACAGTATCTTG) | 0
40 | ACAGTTGCATGGACCGGTTTTCCCGGTAATCCGTATTTGCA (site ACAGTTGCTTG) | 1.81
41 | ACAGTTTCATGGACCGGTTTTCCCGGTAATCCGTATTTGCA (site ACAGTATCTTG) | 2.55
42 | ACAGTTTCATGGACCGGTTTTCCCGGTAATCCGTATTTGCA (site ACAGTCTCTTG) | 2.43
43 | ACAGTTTCATGGACCGGTTTTCCCGGTAATCCGTATTTGCA (site ACAGTGTCTTG) | 1.52
44 | ACAGTTTCATGGACCGGTTTTCCCGGTAATCCGTATTTGCA (site ACAGTTTCTTG) | 2.24
45 | ACATACGCATGGACCGGTTTTCCCGGTAATCCGTATTTGGC (site ACATACGCTGC) | 2.78
46 | ACATCGACATGGACCGGTTTTCCCGGTAATCCGTATTTGTG (site ACATCAACTCA) | 0.397
47 | ACATCGACATGGACCGGTTTTCCCGGTAATCCGTATTTGTG (site ACATCCACTCA) | 0.0171
48 | ACATCGACATGGACCGGTTTTCCCGGTAATCCGTATTTGTG (site ACATCGACTCA) | 0.245

Row | Sequence | recombinant UMI read abundance (log10)
49 | ACATCGACATGGACCGGTTTTCCCGGTAATCCGTATTTGTG (site ACATCTACTCA) | 0.00913
50 | ACATCTACATGGACCGGTTTTCCCGGTAATCCGTATTTGAG (site ACATCTACTCA) | 0.0306
51 | ACATCTACATGGACCGGTTTTCCCGGTAATCCGTATTTGAG (site ACATCTACTCC) | 0.184
52 | ACATCTACATGGACCGGTTTTCCCGGTAATCCGTATTTGAG (site ACATCTACTCG) | 0.0217
53 | ACATCTACATGGACCGGTTTTCCCGGTAATCCGTATTTGAG (site ACATCTACTCT) | 1.67
54 | ACATCTACATGGACCGGTTTTCCCGGTAATCCGTATTTGTA (site ACATCTACTAA) | 0.0109
55 | ACATCTACATGGACCGGTTTTCCCGGTAATCCGTATTTGTA (site ACATCTACTCA) | 0.0123
56 | ACATCTACATGGACCGGTTTTCCCGGTAATCCGTATTTGTA (site ACATCTACTGA) | 0
57 | ACATCTACATGGACCGGTTTTCCCGGTAATCCGTATTTGTA (site ACATCTACTTA) | 0.989
58 | ACATCTCCATGGACCGGTTTTCCCGGTAATCCGTATTTGTG (site ACATCTACTCA) | 0.0166
59 | ACATCTCCATGGACCGGTTTTCCCGGTAATCCGTATTTGTG (site ACATCTCCTCA) | 0.00967
60 | ACATCTCCATGGACCGGTTTTCCCGGTAATCCGTATTTGTG (site ACATCTGCTCA) | 0.0416
61 | ACATCTCCATGGACCGGTTTTCCCGGTAATCCGTATTTGTG (site ACATCTTCTCA) | 0.00664
62 | ACATCTTCATGGACCGGTTTTCCCGGTAATCCGTATTTGTG (site ACATCTACTCA) | 0.0158
63 | ACATCTTCATGGACCGGTTTTCCCGGTAATCCGTATTTGTG (site ACATCTCCTCA) | 0.0151
64 | ACATCTTCATGGACCGGTTTTCCCGGTAATCCGTATTTGTG (site ACATCTGCTCA) | 0
65 | ACATCTTCATGGACCGGTTTTCCCGGTAATCCGTATTTGTG (site ACATCTTCTCA) | 0.969
66 | ACATGAACATGGACCGGTTTTCCCGGTAATCCGTATTTGAC (site ACATGAACTGT) | 2.71
67 | ACATGATCATGGACCGGTTTTCCCGGTAATCCGTATTTGCA (site ACAGTATCTTG) | 1.14
68 | ACATGATCATGGACCGGTTTTCCCGGTAATCCGTATTTGCA (site ACATGATCTTG) | 2.74
69 | ACATGCGCATGGACCGGTTTTCCCGGTAATCCGTATTTGGT (site ACATGCGCTAC) | 1.02
70 | ACATTACCATGGACCGGTTTTCCCGGTAATCCGTATTTGGA (site ACATTACCTTC) | 0
71 | ACATTATCATGGACCGGTTTTCCCGGTAATCCGTATTTGAA (site ACAGTATCTTG) | 0
72 | ACATTATCATGGACCGGTTTTCCCGGTAATCCGTATTTGAA (site ACATTATCTTT) | 2.38
